These results are taken from US9150509B2, “Lipoic acid derivatives” (Cornerstone Pharmaceuticals, Inc., priority 2007, dated 2015).

Holding throughout (format): cell-based
The subject of assay [1] is human melanoma A2058. As to the kind of experiment: Anti-tumor activity, cell growth inhibition by CellTiter Blue Assay, A2058. Particulars: read-out: IC50 A2058 (melanoma). On the procedure:
(§1) Three human tumor cells were used in this investigation, and they were human H460 NSCLC, human melanoma A2058 and human […] HT1080 cell lines. Cells were originally obtained from American Type Cell Culture (ATCC) and have been used for experiments at passages below 30. All tumor cells were maintained at 37° C. in a humidified 5% CO2 atmosphere in T75 tissue culture flasks containing 25 mL of Roswell Park Memorial Institute (RPMI) 1640, with 10% fetal bovine serum (FBS) and 2 mM L-glutamine. The tumor cells were split at a ratio of 1:10 every 4-5 days by trypsinization and resuspended in fresh medium in a new flask. Cells were harvested for experiments at 70-90% confluency.
(§2) The culture media used for all cell lines in this study was Roswell Park Memorial Institute (RPMI) 1640, with 10% fetal bovine serum (FBS), 2 mM L-glutamine, 100 IU/mL penicillin and 100 μg/ml streptomycin. The test compounds used were generally prepared at a concentration higher than 20 mM and tested at 1 mM in cultured media for precipitation, 1 mM is the highest tested concentration of the test compounds.
(§3) The anti-tumor activities of the test compounds were assessed by exposing the tumor cells to various concentrations of test compounds (or vehicle) or not treated with the test compounds or vehicle. The concentration ranges of the test compounds evaluated in this study were 0-1 mM. The duration of treatment of the tumor cells was 48 hours. Subsequent to treatment with the test articles, the number of viable tumor cells was determined, and the concentrations of the test agents that induced 50% of cell growth inhibition (IC50) were derived and compared.
(§4) Cell Seeding for Experiments: To cells grown to 70-90% confluency, medium was removed and the cell monolayers were washed briefly by adding 5 mL of phosphate buffer saline (PBS) followed by aspiration. Trypsin-ethylenediaminetetraacetic acid (EDTA) (4 mL) was added to each, flask, and the flask was placed in the tissue culture incubator for 5 minutes. Serum-containing medium (10 mL) was added to halt the enzymatic reactions, and cells were disaggregated, by repeated resuspension with serological pipet. The cell-containing medium (20 μL) was added to 20 μL of 0.4% Trypan Blue solution, mixed, and 10 μL of this cell-containing mixture was placed in a chamber of a hemocytometer. The number of viable cells was determined by counting the number of viable cells (cells that excluded trypan blue) in the 4 corner squares of the hemocytometer chamber at 100× magnification. The volume of cells needed was determined by the following formula:
(§5) The number of cells targeted for the study was 4×10^3 per well in 100 μL of medium. The actual number of cells were counted and seeded in the wells of a 96 well-plate. The cells were then incubated for ˜24 hrs before they were used for testing of anti-tumor activities of the test compounds and vehicle. Cell monolayer was confluent or subconfluent for some cell lines at the day of the experiment.
(§6) Treatment with Test Compounds and Vehicle: On the day of testing, 5 μL of a specific concentration of the test compounds (or vehicle) were added to the wells. After exposure to the test articles (or vehicle) for 48 hours, the number of viable cells in the wells was determined (see next section), and the percent of cells relative to no treatment was calculated.
(§7) Determination of the Number of Viable Cells by the CellTiter Blue Assay: The number of viable cells was determined using the CellTiter Blue Assay in this study. Specifically, reagents were allowed to come to room temperature according to instructions from Protoega, Inc. (Madison, Wis.). CellTiter Blue reagent was added with the 12-channel Eppendorf pipettor, 20 μL per well. The cells were then incubated at 37° C. for 1-4 hrs in cell culture incubator. Fluorescence intensity, which is proportional to the quantity of viable cells, was read at 530/590 nm using FLUOstar optima fluorescence plate reader (BMG technologies, Germany). […]

Assay [2] deals with human H460 NSCLC. As to the kind of experiment: Anti-tumor activity, cell growth inhibition by CellTiter Blue Assay, H460. Particulars: read-out: IC50 H460 (NSCLC). On the procedure:
as §1, §2, §3, §4, §5, §6, §7

The test system of assay [3] is human adenocarcinoma HT1080. Briefly: Anti-tumor activity, cell growth inhibition by CellTiter Blue Assay, HT1080. The settings on record: read-out: IC50 HT1080. The procedure:
as §1, §2, §3, §4, §5, §6, §7
On the technique in general: Resazurin is reduced to fluorescent resorufin, in cell work by metabolically active cells.

The mark [4] stands for this setting: Homo sapiens, A2058, 48 h, A2058 cells, 48 hours treatment, 0-1 mM, viable cells by CellTiter Blue.
[5] abbreviates: Homo sapiens, NCI-H460, 48 h, H460 cells, 48 hours treatment, 0-1 mM, viable cells by CellTiter Blue.
[6] abbreviates: HT1080 cells, 48 hours treatment, 0-1 mM, viable cells by CellTiter Blue.
Setting [7] is: A2058 cells, 48 hours treatment, 0-1 mM, viable cells by CellTiter Blue.
Where [8] appears, read: H460 cells, 48 hours treatment, 0-1 mM, viable cells by CellTiter Blue.
Setting [9] is: Homo sapiens, HT-1080, 48 h, HT1080 cells, 48 hours treatment, 0-1 mM, viable cells by CellTiter Blue.

The structures appear in SMILES notation. Read-outs that look alike come from different tables or passages of the source.

The IC50 is the concentration needed to halve the response being measured. `O=C(O)CCCCC(CCSCCc1ccccc1)SCCc1ccccc1` (stereo not drawn) [W]: the half-maximal inhibitory concentration (IC50) in assay [1] (setting [4]) amounted to 125 ± 3 µM; in assay [2] (setting [5]), 167 ± 42 µM.
Regarding `O=C(O)CCCCC(CCSSCc1ccccc1)SSCc1ccccc1` (stereo not drawn) [JJ], the 50% inhibitory concentration (IC50) worked out at 133 ± 2 µM in assay [3] (setting [6]), 206 ± 55 µM in assay [1] (setting [7]) and 318 ± 20 µM in assay [2] (setting [8]).
Take `O=C(O)CCCCC1CCSC(c2ccncc2)S1` (stereo not drawn) [Q]: the IC50 in assay [1] (Homo sapiens, A2058, 48 h) was 717 ± 11 µM.
With `CCC(S)(CCCCC(=O)O)CC(S)c1ccccc1` (stereo not drawn) [Compound MM, 6-ethyl-8-phenyl-6,8-bismercaptooctanoic acid], the 50% inhibitory concentration (IC50) is 421 ± 53 µM in assay [3] (setting [9]), 346 ± 20 µM in assay [1] (setting [4]) and 449 ± 1 µM in assay [2] (setting [5]).
With `O=C(O)CCCCC(CCSSCc1ccccc1)SSCc1ccccc1` (stereo not drawn) [KK], the IC50 in assay [3] (setting [6]) worked out at 212 ± 52 µM; in assay [1] (setting [7]), 483 ± 180 µM; in assay [2] (setting [8]), 409 ± 69 µM.
On to `CCSC(CCS)CCCCC(=O)O` (stereo not drawn) [H, 6-ethylmercapto-8-mercaptooctanoic acid], for which the IC50 in assay [3] (setting [9]) worked out at 270 ± 4 µM; in assay [1] (setting [4]) it was 238 ± 2 µM; in assay [2] (setting [5]) it was 282 ± 20 µM.
Consider `O=C(O)CCCCC(CCSc1ccnc2ccccc12)Sc1ccnc2ccccc12` (stereo not drawn) [F], for which the IC50 in assay [3] (Homo sapiens, HT-1080, 48 h) was determined as 68 ± 20 µM; in assay [1] (Homo sapiens, A2058, 48 h) it was 51 ± 4 µM; in assay [2] (Homo sapiens, NCI-H460, 48 h), 70 ± 13 µM.
In the case of `O=C(O)CCCCC(CCSc1ccnc2cc(Cl)ccc12)Sc1ccnc2cc(Cl)ccc12` (stereo not drawn) [A], the IC50 in assay [3] (setting [9]) is 80 ± 8 µM; in assay [1] (setting [4]) it was 183 ± 3 µM; in assay [2] (setting [5]), 127 ± 11 µM.
`O=C(O)CCCCC(CCSCc1c(F)c(F)c(F)c(F)c1F)SCc1c(F)c(F)c(F)c(F)c1F` (stereo not drawn) [X]: the IC50 in assay [3] (setting [9]) is 60 ± 18 µM; in assay [1] (setting [4]), 59 ± 4 µM; in assay [2] (setting [5]), 64 ± 4 µM.
